Laboratory results: patent publication US20040223983A1, “Pharmaceutical preparations, use of these preparations and process for increasing the biovailability of pharmaceutical substances to be administered perorally” (priority 2002, published 2004)
Converted amounts (≈) assume the structure as drawn. “And” between values parts separate entries of the source, which are not always exact repeats. Identical values can stand only once. Like-named read-outs stand apart in the source and are kept apart here. One block for each compound: values may come before it.

What was measured:
[1] = biological target: T1, Recombinant, Human Cytochrome P450 2C19 Isoenzyme (Homo sapiens, UniProt P33261); experiment: Cytochrome P450 inhibition test, in vitro CYP test (2C19); assay type: biochemical
T1 construct: purchased Gentest Corp., Woburn, Mass., USA
Description: (§1) In this connection, the inhibition of the enzymes is characterized via the concentration (IC50, μg/ml) of the adjuvants, in which 50% of the respective isoenzymes are inhibited.
(§2) Stock solutions of the respective test substances or test formulations are produced in acetonitrile and diluted with incubation buffer (3 mg/ml in 2% acetonitrile in the batch); additional concentrations are produced by serial dilution. Concentration of the acetonitrile is at most 2% in all batches.
The incubations are set in 96-hole plate format with 200 μl of total volume in double values. The background batch controls the fluorescence of the batch without enzymes and formulations according to the invention, and the inherent fluorescence of the substances is determined in the buffer dilution. The preparation of the dilutions and the pipetting diagram corresponds to the original instructions of the manufacturer of the test kit (Gentest Corp., Woburn, Mass., USA).
(§3) The batches are started by adding the enzyme/substrate mixture, shaken for 30 or 45 minutes in an incubator at 37° C. and then interrupted with 50 μl of stop solution. The plates are briefly shaken, and the fluorescence intensity is measured in the plate-fluorescence reader at the wavelengths for excitation or emission.
(§4) The development of the fluorescent product forms the basis for the calculation. […] The IC50 value is calculated from the concentration-dependent inhibition.

[2] = biological target: T2, Recombinant, Human Cytochrome P450 3A4 Isoenzyme (Homo sapiens, UniProt P08684); experiment: Cytochrome P450 inhibition test, in vitro CYP test (3A4); conditions: substrate 7-BFC, 30 minutes, 37° C.
Description: as §1, §2
(§5) The incubations are set in 96-hole plate format with 200 μl of total volume in double values. The background batch controls the fluorescence of the batch without enzymes and formulations according to the invention, and the inherent fluorescence of the substances is determined in the buffer dilution. […]
as §3, §4

[3] = biological target: T3, Recombinant, Human Cytochrome P450 2C9 Isoenzyme (Homo sapiens, UniProt P11712); experiment: Cytochrome P450 inhibition test, in vitro CYP test (2C9); conditions: substrate 7-MFC, 45 minutes, 37° C.
Description: as §1, §2, §5, §3, §4

[4] = biological target: human, intestinal P-gp- transporters (Homo sapiens, UniProt P08183); experiment: P-gp- transporter test (calcein AM, MATU cells); conditions: ratio of fluorescence intensity test solution to blank
From the text: In this test, the activity to inhibit the transporters is characterized via ratio (R) that indicates the ratio of the fluorescence intensity of the test solution to the fluorescence intensity of the blank and is directly proportional to inhibiting the P-gp- transporters. Fluorescence intensity test solution corresponds to fluorescence intensity, measured at 485/535 nm (excitation or emission), of cells that contain test solution and calcein AM working solution.
For this purpose, a suspension of human breast cancer cell lines, MATU-cell lines (Max-Dellbrück-Centrum (MDC)-Berlin-Buch; 40,000 cells/well/200 μl) is first added to a microtiter plate (Greiner black 96 plates, clear bottom, sterile). […]
Then, the addition of calcein AM working solution (20 μl/well) to all wells is carried out, i.e., with and without test solution. […] After incubation is completed, the fluorescence is measured in a plate-fluorescence reader (Fluostar®, B&L Systems, Maarssen) at 485/535 nm (excitation or emission).
The following ratio: ratio (R) of the fluorescence intensity of the test solution to the fluorescence intensity of the blank is determined.
The fluorescence intensity of the test solution corresponds to the fluorescence intensity, measured at 485/535 nm (excitation or emission), of the cells that contain the test solution and the calcein AM working solution.

17β-HSD2 = biological target: T4, 17β-HSD2 (Homo sapiens, UniProt P37059); experiment: Metabolic stability, in vitro 17β-HSD2 test on intestinal microsomes; assay type: in vitro ADME; conditions: % of starting value of AE2, n=2
T4 construct: Intestinal microsomes (InVitro Technologies); protein content: 24 mg/ml; tissue InVitro Technologies; host or cells: intestinal microsomes
T4 sequence (P37059 1-387): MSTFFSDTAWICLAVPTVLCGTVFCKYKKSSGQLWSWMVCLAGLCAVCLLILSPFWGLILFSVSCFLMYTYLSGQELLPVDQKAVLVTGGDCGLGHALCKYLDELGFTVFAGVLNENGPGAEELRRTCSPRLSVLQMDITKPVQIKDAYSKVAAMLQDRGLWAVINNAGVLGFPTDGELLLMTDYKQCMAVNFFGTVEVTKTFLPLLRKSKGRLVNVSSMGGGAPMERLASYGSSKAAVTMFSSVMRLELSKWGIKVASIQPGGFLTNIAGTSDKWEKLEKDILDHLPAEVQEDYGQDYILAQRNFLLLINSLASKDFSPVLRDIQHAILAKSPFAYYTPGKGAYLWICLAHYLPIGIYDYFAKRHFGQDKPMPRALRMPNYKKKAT
From the text: Pharmaceutical preparations according to the invention that contain steroids that have a secondary, beta-position hydroxyl group in 17-position of the sterane skeleton inhibit the 17β-HSD 2, so that less 17-keto-biotransformation product is produced. The inhibition potential is directly proportional to the mass proportion of the formulation according to the invention. […] Example 5; FIG. 3). It can be seen from this that formulations according to the invention are suitable to inhibit 17β-HSD 2.
17β-HSD2 test on microsomes of intestinal origin. Metabolic stability of 0.3 μM of AE2 in an intestinal microsome suspension and production of 17-ketone metabolites after 30 minutes based on the concentration (m/v) of a formulation according to the invention that contains Cremophor®EL and Transcutol®P, Smix 9:1, 20% (m/m), Miglyol®812.
A formulation according to the invention, produced analogously to Example 1a) and containing Cremophor®EL and Transcutol®P, Smix 9:1, 20% (m/m) Miglyol®812, is tested for its property to inhibit 17β-HSD2 in intestinal microsomes. 17β-HSD2 mediates the intestinal enzymatic dehydrogenation of an OH group in 17-position of the sterane skeleton to form a ketone group. An inhibition of the 17β-HSD2 is measured via a test substance AE2, which is the substrate of this enzyme, and is biotransformed into a 17-keto product. The ratio of the AE2 concentration and the 17-ketone-biotransformation product is determined at specific times (0, 10, 20, 30, 45 and 60 minutes) in each case for the starting-AE2 concentration in % (m/m).
For these tests, the following materials are used:
Na-Phosphate buffer: 100 mmol of Na2HPO4×2H2O and 100 mmol of NaH2PO4×H2O
Test substance solution of AE2: AE2 50 μmol in MeOH (in the test batch 0.3 μmol)
Formulation batches of the above-mentioned formulation according to the invention (% m/v): 0%, 0.00441%, 0.0147%, 0.0441%, 0.147% and 0.441% formulation in Na-phosphate buffer (in the test batch 0%, 0.003%, 0.01%, 0.03%, […] and 0.3% formulation).
Cofactor solution: 2 ml of glucose-6-phosphate (160 mmol)/MgCl2 (80 mmol)-mixture is added to 400 μl of a glucose-6-phosphate-dehydrogenase solution, then 15.6 mg of NADP and 13.4 mg of NAD are added.
Microsome solution: Intestinal microsomes (InVitro Technologies; protein content: 24 mg/ml; CYP450 content; 0.058 nmol/mg of protein) Thawed in a water bath at 37° C. (˜60 seconds) and diluted to a concentration of 5 mg/ml of protein with Na-phosphate buffer.
In each case, 170 μl/well of the formulation buffer and 5 μl/well of test substance solution of AE2 are introduced into the corresponding wells, whereby double values are set for each measuring time (0, 10, 20, 30, 45 and 60 minutes).
In each case, 250 μl of ice-cold MeOH is added at the 0-minute values. Immediately after, 25 μl of microsome solution and 50 μl of cofactor solution are added to all wells. The samples of the 0-minute values are stored without incubation at ˜−20° C. for about 24 hours. The other samples are incubated in each case for 10, 20, 30, 45 and 60 minutes at 37° C., and the dehydrogenation reaction is stopped after these times by the addition of 250 μl of ice-cold MeOH in each case. The samples are stored for about 24 hours before they are measured by HPLC at ˜−20° C. and they are centrifuged before HPLC analysis at 3000 rpm, whereby the supernatant is measured.

Lipophilicity (log P) = assay type: physicochemical
[5] = biological target: T3, Recombinant, Human Cytochrome P450 2C9 Isoenzyme
Description: as §1, §2, §5, §3, §4

[6] = biological target: T2, Recombinant, Human Cytochrome P450 3A4 Isoenzyme
Description: as §1, §2, §5, §3, §4

T1 sequence (P33261 whole entry): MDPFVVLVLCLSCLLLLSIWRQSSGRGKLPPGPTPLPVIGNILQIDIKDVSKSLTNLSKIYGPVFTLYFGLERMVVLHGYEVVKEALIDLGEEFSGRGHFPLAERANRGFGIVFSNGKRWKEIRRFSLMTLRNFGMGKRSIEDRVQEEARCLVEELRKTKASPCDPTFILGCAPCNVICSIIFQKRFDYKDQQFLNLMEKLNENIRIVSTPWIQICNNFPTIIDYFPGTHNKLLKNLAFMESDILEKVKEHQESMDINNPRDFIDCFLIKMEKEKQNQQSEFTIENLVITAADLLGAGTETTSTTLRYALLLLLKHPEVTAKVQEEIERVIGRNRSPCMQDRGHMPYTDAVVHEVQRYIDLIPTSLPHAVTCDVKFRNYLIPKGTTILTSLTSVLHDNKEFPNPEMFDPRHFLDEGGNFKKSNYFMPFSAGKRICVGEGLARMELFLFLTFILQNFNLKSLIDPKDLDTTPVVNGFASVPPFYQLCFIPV
T2 sequence (P08684 whole entry): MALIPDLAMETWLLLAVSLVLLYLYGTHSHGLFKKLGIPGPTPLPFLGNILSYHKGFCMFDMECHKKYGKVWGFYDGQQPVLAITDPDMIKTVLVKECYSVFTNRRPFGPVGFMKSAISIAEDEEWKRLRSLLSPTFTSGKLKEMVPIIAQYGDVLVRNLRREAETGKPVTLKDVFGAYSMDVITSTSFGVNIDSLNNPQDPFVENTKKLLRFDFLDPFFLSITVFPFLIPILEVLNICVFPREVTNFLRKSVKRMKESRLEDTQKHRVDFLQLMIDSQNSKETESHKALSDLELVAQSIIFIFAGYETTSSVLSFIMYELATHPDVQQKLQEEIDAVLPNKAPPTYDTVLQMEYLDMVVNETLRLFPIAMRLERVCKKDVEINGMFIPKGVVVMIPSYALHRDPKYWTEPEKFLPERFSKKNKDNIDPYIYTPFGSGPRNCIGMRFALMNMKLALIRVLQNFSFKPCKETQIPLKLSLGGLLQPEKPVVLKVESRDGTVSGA
Chain of human, intestinal P-gp- transporters (P08183 whole entry): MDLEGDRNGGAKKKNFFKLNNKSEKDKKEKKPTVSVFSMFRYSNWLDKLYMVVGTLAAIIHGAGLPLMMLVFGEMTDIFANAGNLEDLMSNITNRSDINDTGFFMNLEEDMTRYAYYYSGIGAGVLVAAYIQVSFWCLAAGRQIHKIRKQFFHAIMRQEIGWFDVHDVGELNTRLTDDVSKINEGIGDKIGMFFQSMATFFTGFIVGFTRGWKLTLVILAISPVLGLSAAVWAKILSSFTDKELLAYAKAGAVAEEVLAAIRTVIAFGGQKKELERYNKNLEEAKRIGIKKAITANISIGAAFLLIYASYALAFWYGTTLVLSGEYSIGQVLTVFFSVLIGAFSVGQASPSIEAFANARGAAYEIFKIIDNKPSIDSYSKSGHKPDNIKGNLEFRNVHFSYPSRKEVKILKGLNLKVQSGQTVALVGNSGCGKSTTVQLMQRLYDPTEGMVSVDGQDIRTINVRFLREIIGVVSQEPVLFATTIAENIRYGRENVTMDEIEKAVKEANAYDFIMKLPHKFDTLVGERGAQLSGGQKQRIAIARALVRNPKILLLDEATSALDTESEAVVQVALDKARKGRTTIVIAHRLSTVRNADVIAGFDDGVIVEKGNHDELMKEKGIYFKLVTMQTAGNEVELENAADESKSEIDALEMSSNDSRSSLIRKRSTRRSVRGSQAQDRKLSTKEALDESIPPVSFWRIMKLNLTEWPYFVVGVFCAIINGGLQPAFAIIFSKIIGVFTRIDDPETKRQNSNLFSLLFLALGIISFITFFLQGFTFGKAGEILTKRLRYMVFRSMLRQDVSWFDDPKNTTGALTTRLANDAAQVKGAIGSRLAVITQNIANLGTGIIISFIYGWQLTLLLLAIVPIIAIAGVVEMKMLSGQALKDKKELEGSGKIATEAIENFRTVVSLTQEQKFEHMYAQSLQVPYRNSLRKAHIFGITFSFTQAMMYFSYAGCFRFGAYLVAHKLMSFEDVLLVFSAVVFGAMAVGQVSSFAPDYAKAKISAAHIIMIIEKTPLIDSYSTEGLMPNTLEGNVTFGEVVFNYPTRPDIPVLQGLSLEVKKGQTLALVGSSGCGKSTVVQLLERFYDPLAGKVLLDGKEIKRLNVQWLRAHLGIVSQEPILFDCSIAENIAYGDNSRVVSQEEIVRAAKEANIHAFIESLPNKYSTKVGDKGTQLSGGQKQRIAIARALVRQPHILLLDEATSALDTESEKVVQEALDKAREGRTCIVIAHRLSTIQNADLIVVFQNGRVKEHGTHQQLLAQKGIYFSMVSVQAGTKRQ
T3 sequence (P11712 whole entry): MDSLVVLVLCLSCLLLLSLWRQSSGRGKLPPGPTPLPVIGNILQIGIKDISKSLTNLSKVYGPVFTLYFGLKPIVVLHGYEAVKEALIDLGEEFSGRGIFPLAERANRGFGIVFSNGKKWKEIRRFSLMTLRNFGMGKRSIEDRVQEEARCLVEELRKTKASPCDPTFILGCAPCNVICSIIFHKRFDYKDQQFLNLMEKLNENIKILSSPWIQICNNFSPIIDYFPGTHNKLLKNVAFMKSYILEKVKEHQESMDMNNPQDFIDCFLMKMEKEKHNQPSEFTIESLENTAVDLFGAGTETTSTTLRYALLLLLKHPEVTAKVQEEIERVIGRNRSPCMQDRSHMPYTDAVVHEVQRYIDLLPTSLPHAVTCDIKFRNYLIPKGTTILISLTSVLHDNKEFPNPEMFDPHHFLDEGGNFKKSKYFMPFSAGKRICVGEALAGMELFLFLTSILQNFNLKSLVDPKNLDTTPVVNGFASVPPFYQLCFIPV

Compound: Polyethylene glycol-35-castor oil [Cremophor ® EL]
IC50 CYP-2C19 [1]: 10 µg/mL

Compound: PEG-40-hydrogenated castor oil [Cremophor ® RH40]
IC50 CYP-2C19 [1]: 11 µg/mL

Compound: CN(CCCCCCC(F)(F)C(F)(F)C(F)(F)C(F)(F)F)CCCCC[C@@H]1Cc2cc(O)ccc2[C@@H]2[C@@H]1[C@@H]1CC[C@H](O)[C@@]1(C)C[C@@H]2F [AE2, 11β-fluoro-7α-{5-[methyl-(7,7,8,8,9,9,10,10,10-nonafluorodecyl)amino]pentyl}estra-1,3,5(10)-triene-3,17β-diol]
amount of genuine AE2 after 30 minutes in the microsome suspension (17β-HSD2; 0.0% Cremophor EL/Miglyol 812/Transcutol P (72T/20T/8T) in test batch): 64% and 66%
amount of genuine AE2 after 30 minutes in the microsome suspension (17β-HSD2; 0.003% Cremophor EL/Miglyol 812/Transcutol P (72T/20T/8T) in test batch): 70% and 71%
amount of genuine AE2 after 30 minutes in the microsome suspension (17β-HSD2; 0.01% Cremophor EL/Miglyol 812/Transcutol P (72T/20T/8T) in test batch): 75% and 76%
amount of genuine AE2 after 30 minutes in the microsome suspension (17β-HSD2; 0.03% Cremophor EL/Miglyol 812/Transcutol P (72T/20T/8T) in test batch): 89% and 83%
amount of genuine AE2 after 30 minutes in the microsome suspension (17β-HSD2; 0.1% Cremophor EL/Miglyol 812/Transcutol P (72T/20T/8T) in test batch): 109% and 114%
amount of genuine AE2 after 30 minutes in the microsome suspension (17β-HSD2; 0.3% Cremophor EL/Miglyol 812/Transcutol P (72T/20T/8T) in test batch): 106% and 109%
logP (Lipophilicity (log P)): 5.9

Compound: CCCCCCCC/C=C\CCCCCCCC(=O)OCC [Ethyl oleate, Ethyl oleate (EO)]
IC50 CYP-2C9 [5]: 195 µg/mL (≈ 0.628 mM)
IC50 CYP-2C19 [1]: 325 µg/mL (≈ 1.05 mM)
IC50 CYP-3A4 [6]: 117 µg/mL (≈ 0.377 mM)

Compound: PEG-400-monoricinoleate [Estax ® 54]
IC50 CYP-2C19 [1]: 0.7 µg/mL

Compound: CN(CCCCC[C@@H]1Cc2cc(O)ccc2[C@@H]2[C@@H]1[C@@H]1CC[C@H](O)[C@@]1(C)C[C@@H]2F)CCCSCCCC(F)(F)C(F)(F)F [AE1, 11β-fluoro-7α-{5-[N-methyl-N-3-(4,4,5,5,5-pentafluoropentylthio)-propylamino]-pentyl}-estra-1,3,5(10)-triene-3,17β-diol]
R ([4]; P-gp substrate): 2.43

More lines, now with the values ahead:

IC50 CYP-2C19 [1]: >3000 µg/mL
Compound: Refined castor oil (RIZ)

IC50 CYP-2C19 [1]: 1400 µg/mL (≈ 10.4 mM)
IC50 CYP-3A4 [2]: 755 µg/mL (≈ 5.63 mM)
IC50 CYP-2C9 [3]: 1500 µg/mL (≈ 11.2 mM)
Maximum R-Value ([4]; calcein AM, 485/535 nm, MATU cells, test solutions 0.3 to 33.3 μmol): 1.18
Compound: CCOCCOCCO [Transcutol ® P, Ethoxydiglycol]

IC50 CYP-2C19 [1]: 100 µg/mL
Compound: C8-C12 triglycerides (MCT) [Miglyol ® 812]

IC50 CYP-2C19 [1]: 8.4 µg/mL
Compound: Polysorbate 80 [Tween ® 80]
